ChEMBL document CHEMBL3758092, “Discovery and preclinical evaluation of potent, orally bioavailable, metabolically stable cyclopropylindolobenzazepine acylsulfonamides as thumb site 1 inhibitors of the hepatitis c virus NS5B RNA-dependent, RNA polymerase” (Bioorg Med Chem Lett, 2016)
pEC50, pIC50: −log10 of the molar value.

What was measured:
[1] = system: Hepatitis C virus; assay: Antiviral activity against HCV1a by replicon assay; type: functional, organism-based, Hepacivirus hominis; conditions: subtype 1a
[2] = system: Hepatitis C virus; assay: Antiviral activity against HCV1b by replicon assay; type: functional, organism-based, Hepacivirus hominis; conditions: genotype 1b
[3] = Drug uptake in rat at 10 mg/kg, po liver after 6 hrs; type: ADME, organism-based; conditions: read-out: Drug uptake
[4] = Ratio of drug level in liver to plasma in rat at 10 mg/kg, po after 6 hrs; type: ADME, organism-based
[5] = Oral bioavailability in rat at 10 mg/kg; type: ADME, organism-based; conditions: in vivo
[6] = Half life in human liver microsomes; type: ADME
[7] = Half life in cynomolgus monkey liver microsomes; type: ADME, Macaca fascicularis
[8] = system: Liver; assay: Drug uptake in rat at 10 mg/kg, po liver after 24 hrs; type: ADME, organism-based; conditions: in vivo, BLD = below limit of detection
[9] = Clearance in rat at 10 mg/kg, po; type: ADME, organism-based; conditions: in vivo
[10] = Permeability of the compound at pH 7.4 by PAMPA; type: ADME; conditions: read-out: permeability
[11] = Plasma concentration in rat at 10 mg/kg, po after 6 hrs; type: ADME, organism-based
[12] = in vitro; conditions: rat, liver microsomes
Description: Metabolic stability in rat liver microsomes assessed as compound remaining after 10 mins

[13] = Drug uptake in rat at 10 mg/kg, po liver after 4 hrs; type: ADME, organism-based; conditions: read-out: Drug uptake
[14] = biological target: Voltage-gated inwardly rectifying potassium channel KCNH2 (Homo sapiens, UniProt Q12809); assay: Inhibition of human ERG by FLIPR assay
Chain of Voltage-gated inwardly rectifying potassium channel KCNH2 (Q12809 whole entry): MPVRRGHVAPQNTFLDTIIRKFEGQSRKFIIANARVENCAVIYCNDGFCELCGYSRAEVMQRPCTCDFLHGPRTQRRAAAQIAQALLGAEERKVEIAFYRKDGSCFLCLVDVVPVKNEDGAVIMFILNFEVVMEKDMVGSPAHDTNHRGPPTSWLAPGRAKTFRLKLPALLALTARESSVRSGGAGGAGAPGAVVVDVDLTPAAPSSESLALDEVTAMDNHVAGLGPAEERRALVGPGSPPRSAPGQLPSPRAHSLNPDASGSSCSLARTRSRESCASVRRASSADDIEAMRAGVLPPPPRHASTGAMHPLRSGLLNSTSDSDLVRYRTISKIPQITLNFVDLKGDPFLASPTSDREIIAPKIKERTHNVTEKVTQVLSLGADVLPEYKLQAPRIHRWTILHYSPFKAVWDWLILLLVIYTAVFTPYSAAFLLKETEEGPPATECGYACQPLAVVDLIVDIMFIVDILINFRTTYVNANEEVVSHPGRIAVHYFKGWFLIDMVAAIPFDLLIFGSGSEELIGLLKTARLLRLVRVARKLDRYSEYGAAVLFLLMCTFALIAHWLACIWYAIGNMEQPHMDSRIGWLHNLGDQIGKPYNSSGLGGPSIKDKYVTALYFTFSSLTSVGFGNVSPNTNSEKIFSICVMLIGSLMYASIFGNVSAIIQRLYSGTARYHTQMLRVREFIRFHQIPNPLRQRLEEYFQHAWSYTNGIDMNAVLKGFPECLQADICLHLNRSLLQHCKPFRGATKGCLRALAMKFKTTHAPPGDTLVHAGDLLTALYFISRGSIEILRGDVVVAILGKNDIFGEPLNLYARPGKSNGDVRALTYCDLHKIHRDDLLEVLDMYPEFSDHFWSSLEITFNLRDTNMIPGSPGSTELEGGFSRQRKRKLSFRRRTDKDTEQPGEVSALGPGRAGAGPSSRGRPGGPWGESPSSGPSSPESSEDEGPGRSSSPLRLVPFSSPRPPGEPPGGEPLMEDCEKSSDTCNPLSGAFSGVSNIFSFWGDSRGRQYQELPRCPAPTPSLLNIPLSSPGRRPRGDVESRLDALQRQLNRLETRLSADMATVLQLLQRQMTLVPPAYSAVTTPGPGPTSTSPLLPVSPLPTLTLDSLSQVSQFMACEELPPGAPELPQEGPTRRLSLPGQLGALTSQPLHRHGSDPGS

[15] = Ratio of drug level in liver to plasma in rat at 10 mg/kg, po after 4 hrs; type: ADME, organism-based
[16] = system: Hepatitis C virus; assay: Antiviral activity against HCV1b by replicon assay in presence of 40% human serum; type: functional, organism-based, Hepacivirus hominis; conditions: genotype 1b
[17] = Ratio of drug level in liver to plasma in rat at 10 mg/kg, po after 24 hrs; type: ADME, organism-based

| SMILES | pEC50 [1] | pEC50 [2] | concentration at 6 h [3] [µM] | Kp at 6 h [4] | bioavailability [5] [%] | half-life [6] [h] | half-life [7] [h] | Drug uptake [8] | CL/F [9] [mL/min/kg] | Papp [10] [×10⁻⁶ cm/s] | concentration at 6 h [11] [µM] | remaining at 10 min [12] [%] | concentration at 4 h [13] [µM] | pIC50 [14] | Kp at 4 h [15] | pEC50 [16] | Kp at 24 h [17] |
| --- | --- | --- | --- | --- | --- | --- | --- | --- | --- | --- | --- | --- | --- | --- | --- | --- | --- |
| COc1ccc2c(c1)C1CC1(C(=O)N1C3CCC1CN(C)C3)Cn1c-2c(C2CCCCC2)c2ccc(C(=O)NS(=O)(=O)C(C)C)cc21 (racemic) | 7.70 | 7.55 | 26.2 | 13 | 65 | – | – | – | – | – | – | – | – | – | – | – | – |
| COc1ccc2c(c1)C1CC1(C(=O)N1C3CCC1CN(C)C3)Cn1c-2c(C2CCCCC2)c2ccc(C(=O)NS(=O)(=O)C(C)(C)C)cc21 (racemic) | 8.10 | 7.64 | – | – | 12.4 | > 1 | 0.733 | BLD | 13.5 | – | – | – | – | – | – | – | – |
| CCS(=O)(=O)NC(=O)c1ccc2c(C3CCCCC3)c3n(c2c1)CC1(C(=O)N2C4CCC2CN(C)C4)CC1c1cc(OC)ccc1-3 (racemic) | 7.77 | 7.64 | 7.9 | 108 | – | 3.43 | 1.2 | – | 40 | – | – | – | – | – | – | – | – |
| CCCCS(=O)(=O)NC(=O)c1ccc2c(C3CCCCC3)c3n(c2c1)CC1(C(=O)N2C4CCC2CN(C)C4)CC1c1cc(OC)ccc1-3 (racemic) | 7.82 | 7.35 | – | – | – | 1.22 | 0.317 | – | – | – | – | – | – | – | – | – | – |
| COc1ccc2c(c1)C1CC1(C(=O)N1C3CCC1CN(C)C3)Cn1c-2c(C2CCCCC2)c2ccc(C(=O)NS(=O)(=O)N3CCC3)cc21 (racemic) | 7.92 | 7.62 | 0.8 | – | – | 2.25 | 0.917 | – | – | 66.5 | 0.02 | 100 | – | – | – | – | – |
| COc1ccc2c(c1)C1CC1(C(=O)N1C3CCC1CN(C)C3)Cn1c-2c(C2CCCCC2)c2ccc(C(=O)NS(C)(=O)=O)cc21 (racemic) | 7.89 | 7.74 | – | – | 3.6 | 2.98 | 1.33 | BLD | 54.4 | – | – | – | – | – | – | – | – |
| COc1ccc2c(c1)C1CC1(C(=O)N1C3CCC1CN(C)C3)Cn1c-2c(C2CCCCC2)c2ccc(C(=O)NS(=O)(=O)C3CC3)cc21 (racemic) | 8.15 | 7.82 | – | 66 | 4.9 | 2.98 | 2.17 | – | 26.9 | – | – | – | 6.4 | – | – | – | – |
| CCCS(=O)(=O)NC(=O)c1ccc2c(C3CCCCC3)c3n(c2c1)CC1(C(=O)N2C4CCC2CN(C)C4)CC1c1cc(OC)ccc1-3 (racemic) | 8.10 | 7.68 | 13.1 | 120 | – | 1.87 | 0.617 | – | 16.5 | – | – | – | – | – | – | – | – |
| CCC(C)S(=O)(=O)NC(=O)c1ccc2c(C3CCCCC3)c3n(c2c1)CC1(C(=O)N2C4CCC2CN(C)C4)CC1c1cc(OC)ccc1-3 (racemic) | 7.82 | 7.43 | – | – | – | 0.3 | 0.633 | – | – | – | – | – | – | – | – | – | – |
| COc1ccc2c(c1)C1CC1(C(=O)N1C3CCC1CN(C)C3)Cn1c-2c(C2CCCCC2)c2ccc(C(=O)NS(=O)(=O)CC(C)(C)C)cc21 (racemic) | 7.64 | 7.39 | 65.3 | 14.5 | – | 0.8 | 0.14 | – | 4.1 | – | – | – | – | – | – | – | – |
| COc1ccc2c(c1)[C@@H]1C[C@]1(C(=O)N1[C@@H]3CC[C@H]1CN(C)C3)Cn1c-2c(C2CCCCC2)c2ccc(C(=O)NS(=O)(=O)N(C)C)cc21 [BECLABUVIR] | – | – | – | 10 | 43 | 0.75 | – | – | – | – | – | 100 | – | 4.59 | 2 | 7.40 | 10 |
